Assays:
HepG2 cells = assay: MTT cytotoxicity assay, HepG2; assay type: cell-based; conditions: Homo sapiens, HepG2, 72 h, read-out: IC50 HepG2, MTT, 72 h, mean ± SD
MCF-7 cells = assay: MTT cytotoxicity assay, MCF-7; assay type: cell-based; conditions: Homo sapiens, MCF7, 72 h, read-out: IC50 MCF-7, MTT, 72 h, mean ± SD
A549 cells [1] = assay: MTT cytotoxicity assay, A549; assay type: cell-based; conditions: Homo sapiens, A549, 72 h, read-out: IC50 A549, MTT, 72 h, mean ± SD
A549 cells [2] = assay: Acridine orange; assay type: cell-based; conditions: 12 h, 4.20 μM 14d, 5.38 μM 19b
A549 cells [3] = assay: Cell cycle analysis by flow cytometry; conditions: 12 h, 4.20 μM 14d, 5.38 μM 19b; for Freq Sub-G1: control 0.07; for Freq G2 (percentage of cells in G2/M phase): control 18.21; for Freq S: control 32.62; for Freq G1: control 48.59
EGFR = conditions: read-out: IC50 (EGFR); previous investigation; cited from earlier work
[4] = previous investigation; cited from earlier work

| SMILES | IC50 (HepG2 cells) | IC50 (MCF-7 cells) | IC50 (A549 cells [1]) | other results |
| --- | --- | --- | --- | --- |
| O=C(N/N=C/c1ccco1)Nc1cc2c(Nc3ccc(F)c(Cl)c3)ncnc2cc1O[C@H]1CCOC1 [10a, (S,E)-N-(4-((3-chloro-4-fluorophenyl)amino)-7-((tetrahydrofuran-3-yl)oxy)quinazolin-6-yl)-2-(furan-2-ylmethylene)hydrazine carboxamide] | 35.2 ± 1.53 µM | 33.4 ± 0.97 µM | – | – |
| Cc1ccc(/C=N/NC(=O)Nc2cc3c(Nc4ccc(F)c(Cl)c4)ncnc3cc2O[C@H]2CCOC2)o1 [10b, (S,E)-N-(4-((3-Chloro-4-fluorophenyl)amino)-7-((tetrahydrofuran-3-Yl)Oxy)quinazolin-6-Yl)-2-((5-methylfuran-2-Yl)methylene)hydrazine carboxamide] | 33.2 ± 1.46 µM | 34.8 ± 1.01 µM | 28.2 ± 1.34 µM | – |
| Cc1ccc(/C=N/NC(=O)Nc2cc3c(Nc4ccc(F)c(Cl)c4)ncnc3cc2O[C@H]2CCOC2)s1 [10c, (S,E)-N-(4-((3-chloro-4-fluorophenyl)amino)-7-((tetrahydrofuran-3-yl)oxy)quinazolin-6-yl)-2-((5-methylthiophen-2-yl)methylene)hydrazine carboxamide] | 29.2 ± 1.43 µM | 26.1 ± 1.33 µM | 28.4 ± 0.56 µM | – |
| CCc1ccc(/C=N/NC(=O)Nc2cc3c(Nc4ccc(F)c(Cl)c4)ncnc3cc2O[C@H]2CCOC2)s1 [10d, (S,E)-N-(4-((3-chloro-4-fluorophenyl)amino)-7-((tetrahydrofuran-3-Yl)oxy)quinazolin-6-Yl)-2-((5-ethylthiophen-2-Yl)methylene)hydrazine carboxamide] | 36.2 ± 1.78 µM | – | 34.23 ± 0.31 µM | – |
| O=C(N/N=C/c1ccc[nH]1)Nc1cc2c(Nc3ccc(F)c(Cl)c3)ncnc2cc1O[C@H]1CCOC1 [10e, (S,E)-2-((1H-pyrrol-2-Yl)methylene)-N-(4-((3-chloro-4-fluorophenyl)amino)-7-((tetrahydrofuran-3-Yl)oxy)quinazolin-6-Yl)hydrazine carboxamide] | 0.59 ± 0.02 µM | 1.21 ± 0.19 µM | 2.41 ± 0.32 µM | – |
| COc1cc2ncnc(Nc3ccc(F)c(Cl)c3)c2cc1NC(=O)N/N=C/c1ccco1 [11a, (E)-N-(4-((3-chloro-4-fluorophenyl)amino)-7-methoxyquinazolin-6-yl)-2-(furan-2-ylmethylene)hydrazine carboxamide] | 29.7 ± 1.86 µM | – | 26.2 ± 1.23 µM | – |
| COc1cc2ncnc(Nc3ccc(F)c(Cl)c3)c2cc1NC(=O)N/N=C/c1ccc(C)o1 [11b, (E)-N-(4-((3-chloro-4-fluorophenyl)amino)-7-methoxyquinazolin-6-yl)-2-((5-methylfuran-2-yl)methylene)hydrazine carboxamide] | 30.2 ± 1.16 µM | 35.2 ± 81 µM | 28.2 ± 1.34 µM | – |
| COc1cc2ncnc(Nc3ccc(F)c(Cl)c3)c2cc1NC(=O)N/N=C/c1ccc(C)s1 [11c, (E)-N-(4-((3-chloro-4-fluorophenyl)amino)-7-methoxyquinazolin-6-yl)-2-((5-methylthiophen-2-yl)methylene)hydrazine carboxamide] | 27.4 ± 1.03 µM | 28.1 ± 1.13 µM | 29.3 ± 0.36 µM | – |
| CCc1ccc(/C=N/NC(=O)Nc2cc3c(Nc4ccc(F)c(Cl)c4)ncnc3cc2OC)s1 [11d, (E)-N-(4-((3-chloro-4-fluorophenyl)amino)-7-methoxyquinazolin-6-yl)-2-((5-ethylthiophen-2-yl)methylene)hydrazine carboxamide] | 35.2 ± 1.08 µM | – | 35.3 ± 0.42 µM | – |
| O=C(N/N=C/CN1CCCCC1)Nc1cc2c(Nc3ccc(F)c(Cl)c3)ncnc2cc1O[C@H]1CCOC1 [14d, (S,E)-N-(4-((3-chloro-4-fluorophenyl)amino)-7-((tetrahydrofuran-3-yl)oxy)quinazolin-6-yl)-2-(2-(piperidin-1-yl)ethylidene)hydrazine carboxamide] | – | – | – | Morphologic changes of A549 cells (AO staining), apoptosis (A549 cells [2]): can induce A549 cell apoptosis; Freq Sub-G1 (A549 cells [3]): 0.06%; Freq G2 (percentage of cells in G2/M phase) (A549 cells [3]): 23.62%; Freq S (A549 cells [3]): 48.44%; Freq G1 (A549 cells [3]): 27.08% |
| CN(C)CCn1cccc1/C=N/NC(=O)Nc1cc2c(Nc3ccc(F)c(Cl)c3)ncnc2cc1O[C@H]1CCOC1 [19b, (S,E)-N-(4-((3-chloro-4-fluorophenyl)amino)-7-((tetrahydrofuran-3-yl)oxy)quinazolin-6-yl)-2-((1-(2-(dimethylamino)ethyl)-1H-pyrrol-2-yl)methylene)hydrazine carboxamide] | – | – | – | Morphologic changes of A549 cells (AO staining), apoptosis (A549 cells [2]): can induce A549 cell apoptosis; Freq Sub-G1 (A549 cells [3]): 0.05%; Freq G2 (percentage of cells in G2/M phase) (A549 cells [3]): 22.31%; Freq S (A549 cells [3]): 43.84%; Freq G1 (A549 cells [3]): 33.23% |
| CN(C)C/C=C/C(=O)Nc1cc2c(Nc3ccc(F)c(Cl)c3)ncnc2cc1O[C@H]1CCOC1 [Afatinib, reference compound] | – | – | – | Freq Sub-G1 (A549 cells [3]): 0.03%; Freq G2 (percentage of cells in G2/M phase) (A549 cells [3]): 47.45%; Freq S (A549 cells [3]): 12.92%; Freq G1 (A549 cells [3]): 39.41% |
| O=C(N/N=C/c1ccc(O)cc1)Nc1cc2c(Nc3ccc(F)c(Cl)c3)ncnc2cc1O[C@H]1CCOC1 [BMC201725-9o, (S,E)-N-(4-((3-chloro-4-fluorophenyl)amino)-7-((tetrahydrofuran-3-yl)oxy)quinazolin-6-yl)-2-(4-hydroxybenzylidene)hydrazine carboxamide] | – | – | – | IC50 (EGFR): 0.056 µM; solubility [4]: unsatisfactory solubility |

— paper PMC6232652 (Computational and Structural Biotechnology Journal, 2018)
